Tests used:
Assay in all cases: relative viability (nuclei count vs DMSO), 5 days (fraction); higher = more cells survive
[1] = tested on: NCI-H460
How it was run: (§1)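 Medians of duplicate plates are given as relative viability. That measure is the nuclei count in treated wells divided by the count in vehicle wells. Counts were taken on 4× images of lung cancer cell lines in 1536-well plates, 5 days after pin-tool dosing the day after seeding with one drug alone or a fixed anchor-drug dose plus five library-drug doses (not always all listed) in √10 steps.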

[2] = tested on: HCC-827
How it was run: as §1

[3] = tested on: HARA
How it was run: as §1

[4] = tested on: ChaGo-K-1
How it was run: as §1

[5] = tested on: LC-2-ad
How it was run: as §1

[6] = tested on: EKVX
How it was run: as §1

[7] = tested on: NCI-H1437
How it was run: as §1

[8] = tested on: H3255
How it was run: as §1

[9] = tested on: PC-3 [JPC-3]
How it was run: as §1

[10] = tested on: NCI-H661
How it was run: as §1

[11] = tested on: LCLC-97TM1
How it was run: as §1

[12] = tested on: NCI-H2126
How it was run: as §1

[13] = tested on: NCI-H322M
How it was run: as §1

[14] = tested on: SK-LU-1
How it was run: as §1

[15] = tested on: LU99A
How it was run: as §1

[16] = tested on: HCC-15
How it was run: as §1

[17] = tested on: NCI-H1792
How it was run: as §1

[18] = tested on: NCI-H1915
How it was run: as §1

[19] = tested on: NCI-H441
How it was run: as §1

[20] = tested on: EMC-BAC-2
How it was run: as §1

[21] = tested on: NCI-H1944
How it was run: as §1

[22] = tested on: NCI-H1793
How it was run: as §1

[23] = tested on: NCI-H23
How it was run: as §1

Cc1cnc(-c2cnc(NCCNc3ccc(C#N)cn3)nc2-c2ccc(Cl)cc2Cl)[nH]1 + CCNC(=O)c1noc(-c2cc(C(C)C)c(O)cc2O)c1-c1ccc(CN2CCOCC2)cc1 [Luminespib] (partner 0.01 µM)
relative viability ([1]; first compound 0.08 µM): 0.0473
relative viability ([1]; first compound 0.253 µM): 0.0403
relative viability ([1]; first compound 0.8 µM): 0.0345
relative viability ([1]; first compound 2.53 µM): 0.0279
relative viability ([2]; first compound 0.08 µM): 0.719
relative viability ([2]; first compound 0.8 µM): 0.752
relative viability ([2]; first compound 2.53 µM): 0.564
relative viability ([3]; first compound 0.08 µM): 0.896
relative viability ([3]; first compound 0.253 µM): 0.568
relative viability ([3]; first compound 0.8 µM): 0.665
relative viability ([3]; first compound 2.53 µM): 0.709
relative viability ([4]; first compound 0.08 µM): 0.622
relative viability ([4]; first compound 0.253 µM): 0.608
relative viability ([4]; first compound 0.8 µM): 0.603
relative viability ([4]; first compound 2.53 µM): 0.538
relative viability ([5]; first compound 0.08 µM): 0.956
relative viability ([5]; first compound 0.253 µM): 0.683
relative viability ([5]; first compound 2.53 µM): 0.963
relative viability ([6]; first compound 0.08 µM): 0.85
relative viability ([6]; first compound 0.253 µM): 0.824
relative viability ([6]; first compound 0.8 µM): 0.911
relative viability ([6]; first compound 2.53 µM): 0.88
relative viability ([7]; first compound 0.08 µM): 1.06
relative viability ([7]; first compound 0.253 µM): 1.06
relative viability ([7]; first compound 0.8 µM): 1.14
relative viability ([7]; first compound 2.53 µM): 1.14
relative viability ([8]; first compound 0.08 µM): 0.96
relative viability ([8]; first compound 0.253 µM): 0.933
relative viability ([8]; first compound 0.8 µM): 0.977
relative viability ([8]; first compound 2.53 µM): 0.835
relative viability ([9]; first compound 0.08 µM): 0.795
relative viability ([9]; first compound 0.253 µM): 0.706
relative viability ([9]; first compound 0.8 µM): 0.675
relative viability ([9]; first compound 2.53 µM): 0.661
relative viability ([10]; first compound 0.08 µM): 0.889
relative viability ([10]; first compound 0.253 µM): 0.881
relative viability ([10]; first compound 0.8 µM): 0.904
relative viability ([10]; first compound 2.53 µM): 0.829
relative viability ([11]; first compound 0.08 µM): 0.748
relative viability ([11]; first compound 0.8 µM): 0.959
relative viability ([11]; first compound 2.53 µM): 0.787
relative viability ([12]; first compound 0.08 µM): 1.11
relative viability ([12]; first compound 0.253 µM): 0.861
relative viability ([12]; first compound 0.8 µM): 0.966
relative viability ([12]; first compound 2.53 µM): 0.903
relative viability ([13]; first compound 0.08 µM): 0.969
relative viability ([13]; first compound 0.253 µM): 0.808
relative viability ([13]; first compound 0.8 µM): 0.857
relative viability ([13]; first compound 2.53 µM): 1.03
relative viability ([14]; first compound 0.08 µM): 0.196
relative viability ([14]; first compound 0.253 µM): 0.238
relative viability ([14]; first compound 0.8 µM): 0.186
relative viability ([14]; first compound 2.53 µM): 0.213
relative viability ([15]; first compound 0.08 µM): 0.243
relative viability ([15]; first compound 0.253 µM): 0.382
relative viability ([15]; first compound 0.8 µM): 0.261
relative viability ([15]; first compound 2.53 µM): 0.234
relative viability ([16]; first compound 0.08 µM): 0.303
relative viability ([16]; first compound 0.253 µM): 0.217
relative viability ([16]; first compound 0.8 µM): 0.318
relative viability ([16]; first compound 2.53 µM): 0.398
relative viability ([17]; first compound 0.08 µM): 0.668
relative viability ([17]; first compound 0.253 µM): 0.432
relative viability ([17]; first compound 0.8 µM): 0.493
relative viability ([17]; first compound 2.53 µM): 0.392
relative viability ([18]; first compound 0.08 µM): 0.808
relative viability ([18]; first compound 0.253 µM): 0.587
relative viability ([18]; first compound 0.8 µM): 0.753
relative viability ([18]; first compound 2.53 µM): 0.779
relative viability ([19]; first compound 0.08 µM): 0.409
relative viability ([19]; first compound 0.253 µM): 0.342
relative viability ([19]; first compound 0.8 µM): 0.311
relative viability ([19]; first compound 2.53 µM): 0.276
relative viability ([20]; first compound 0.08 µM): 1.25
relative viability ([20]; first compound 0.253 µM): 1.05
relative viability ([20]; first compound 0.8 µM): 1.23
relative viability ([20]; first compound 2.53 µM): 1.09
relative viability ([21]; first compound 0.08 µM): 0.831
relative viability ([21]; first compound 0.8 µM): 0.861
relative viability ([21]; first compound 2.53 µM): 0.678
relative viability ([22]; first compound 0.08 µM): 0.18
relative viability ([22]; first compound 0.253 µM): 0.173
relative viability ([22]; first compound 0.8 µM): 0.147
relative viability ([22]; first compound 2.53 µM): 0.201
relative viability ([23]; first compound 0.08 µM): 0.22
relative viability ([23]; first compound 0.253 µM): 0.218
relative viability ([23]; first compound 0.8 µM): 0.216
relative viability ([23]; first compound 2.53 µM): 0.209

Source: the supplement of paper PMC10307832
